Data: patent US8192962B2, “Processes for detecting toxic substances” (Daikin Industries, Ltd., priority 2001, dated 2012)

System: Unknown protein yeast genes
Test: DNA chip mRNA expression in yeast, unknown protein yeast genes (Table 1)
Type: cell-based, Saccharomyces cerevisiae S288C
Experimental: Yeast (Saccharomyces cerevisiae S288C (α SUC2mal mel gap2 CUP1)) were incubated at 25° C. on YPD medium (yeast extract 1%, polypepton 2%, glucose 2%). One of toxic chemical substances was added to the cells at logarithmic growth phase, and the cells were further incubated for two hours. Cells were cultured without any chemical substance in the same condition, and were used as control. Concentrations of the chemical substances were defined to inhibit the growth of the yeast but not lead to death.
After completion of the incubation, the culture was centrifuged to collect the cells. To the cells, sodium acetate buffer (50 mM sodium acetate, 10 mM EDTA, 1% SDS) was added, and the mixture was shaken at 65° C. for five minutes, followed by returning to room temperature, and obtaining the supernatant, of which the procedures were repeated two times. To the supernatant, ½ amount of a solution of phenol/chloroform was added, and the mixture was centrifuged to give a supernatant, which was added with an equal amount of chloroform, and the mixture was centrifuged to give a supernatant. To the supernatant, an equal amount of isopropanol containing 0.3 M sodium acetate was added, and the mixture was allowed to stand at room temperature for 30 minutes, after which the mixture was centrifuged to give a sediment of the whole RNAs. Seventy % ethanol was added to the sediment, and the mixture was again centrifuged to give a sediment, which was then dried and dissolved in water. mRNA was isolated from the whole RNAs as followings. In view of the fact that a poly A chain is attached to the 3′ terminus of mRNA, a polynucleotide having a poly T structure which was immobilized on the surface of latex beads was used to trap the mRNA, and then the mRNA was washed and eluted with spine column (Oligotex-dT30<Super>mRNA Purification Kit, Takara). Reverse transcription of the mRNA was conducted with a reverse transcriptase (Super Script II Reverse Transcriptase; catalogue No. 18064-014, GibcoBRL) using fluorescence-labeled nucleotides to give cDNAs that were introduced with Cy3-dUTP or Cy5-dUTP during the reverse transcription.
The labeled cDNAs were dissolved in TE buffer (10mM Tris-HCl/1 mM EDTA, pH8.0), and the solution was dropped on the DNA chip containing the whole genes of yeast (DNA Chip Research Inc. Japan) so that the cDNAs were hybridized on the DNA chip at 65° C. for over 12 hours. The fluoresces intensity of the DNA chip was read with a scanner, and the ratio relative to the fluorescence intensity resulting from the absence of chemical substance was estimated as the following, which is shown in Tables 1 to 9: […]

`CCCCCCCCCCCCc1ccc(S(=O)(=O)[O-])cc1.[Na+]` [(17), sodium dodecylbenzosulfonate] was tested, and the “The level of expressed mRNA in the presence of chemical substance/The level of expressed mRNA in the absence of chemical substance” value (yeast gene YAL053W, incubated two hours with chemical substance) was 1.2, the “The level of expressed mRNA in the presence of chemical substance/The level of expressed mRNA in the absence of chemical substance” value (yeast gene YBL048W) was 1.3 and the “The level of expressed mRNA in the presence of chemical substance/The level of expressed mRNA in the absence of chemical substance” value (yeast gene YBL107C) was 0.9. The “The level of expressed mRNA in the presence of chemical substance/The level of expressed mRNA in the absence of chemical substance” value (yeast gene YDL072C, incubated two hours with chemical substance) was 1.6, the “The level of expressed mRNA in the presence of chemical substance/The level of expressed mRNA in the absence of chemical substance” value (yeast gene YDL204W, incubated two hours with chemical substance) was 1.8 and the “The level of expressed mRNA in the presence of chemical substance/The level of expressed mRNA in the absence of chemical substance” value (yeast gene YDL222C, incubated two hours with chemical substance) was 0.9. For the same molecule, the “The level of expressed mRNA in the presence of chemical substance/The level of expressed mRNA in the absence of chemical substance” value (yeast gene YDR330W, incubated two hours with chemical substance) was 1.5, the “The level of expressed mRNA in the presence of chemical substance/The level of expressed mRNA in the absence of chemical substance” value (yeast gene YDR411C, incubated two hours with chemical substance) was 1.5 and the “The level of expressed mRNA in the presence of chemical substance/The level of expressed mRNA in the absence of chemical substance” value (yeast gene YDR511W, incubated two hours with chemical substance) was 1.3. The “The level of expressed mRNA in the presence of chemical substance/The level of expressed mRNA in the absence of chemical substance” value (yeast gene YDR545W, incubated two hours with chemical substance) was 0.9, the “The level of expressed mRNA in the presence of chemical substance/The level of expressed mRNA in the absence of chemical substance” value (yeast gene YEL001C, incubated two hours with chemical substance) was 0.7 and the “The level of expressed mRNA in the presence of chemical substance/The level of expressed mRNA in the absence of chemical substance” value (yeast gene YER004W, incubated two hours with chemical substance) was 1.4. The “The level of expressed mRNA in the presence of chemical substance/The level of expressed mRNA in the absence of chemical substance” value (yeast gene YER035W, incubated two hours with chemical substance) was 2.2, the “The level of expressed mRNA in the presence of chemical substance/The level of expressed mRNA in the absence of chemical substance” value (yeast gene YER079W, incubated two hours with chemical substance) was 1.0 and the “The level of expressed mRNA in the presence of chemical substance/The level of expressed mRNA in the absence of chemical substance” value (yeast gene YER106W, incubated two hours with chemical substance) was 0.8. For the same molecule, the “The level of expressed mRNA in the presence of chemical substance/The level of expressed mRNA in the absence of chemical substance” value (yeast gene YER158C, incubated two hours with chemical substance) was 1.6, the “The level of expressed mRNA in the presence of chemical substance/The level of expressed mRNA in the absence of chemical substance” value (yeast gene YER163C, incubated two hours with chemical substance) was 1.2 and the “The level of expressed mRNA in the presence of chemical substance/The level of expressed mRNA in the absence of chemical substance” value (yeast gene YER175C, incubated two hours with chemical substance) was 0.9. The “The level of expressed mRNA in the presence of chemical substance/The level of expressed mRNA in the absence of chemical substance” value (yeast gene YFL006W, incubated two hours with chemical substance) was 1.0, the “The level of expressed mRNA in the presence of chemical substance/The level of expressed mRNA in the absence of chemical substance” value (yeast gene YFL010C, incubated two hours with chemical substance) was 1.9 and the “The level of expressed mRNA in the presence of chemical substance/The level of expressed mRNA in the absence of chemical substance” value (yeast gene YFL024C) was 0.9. The “The level of expressed mRNA in the presence of chemical substance/The level of expressed mRNA in the absence of chemical substance” value (yeast gene YFL032W, incubated two hours with chemical substance) was 1.7, the “The level of expressed mRNA in the presence of chemical substance/The level of expressed mRNA in the absence of chemical substance” value (yeast gene YGL037C, incubated two hours with chemical substance) was 1.3 and the “The level of expressed mRNA in the presence of chemical substance/The level of expressed mRNA in the absence of chemical substance” value (yeast gene YGL047W, incubated two hours with chemical substance) was 1.1. The “The level of expressed mRNA in the presence of chemical substance/The level of expressed mRNA in the absence of chemical substance” value (yeast gene YGL053W, incubated two hours with chemical substance) was 2.2, the “The level of expressed mRNA in the presence of chemical substance/The level of expressed mRNA in the absence of chemical substance” value (yeast gene YGL121C) was 2.7 and the “The level of expressed mRNA in the presence of chemical substance/The level of expressed mRNA in the absence of chemical substance” value (yeast gene YGL199C, incubated two hours with chemical substance) was 1.2. For the same molecule, the “The level of expressed mRNA in the presence of chemical substance/The level of expressed mRNA in the absence of chemical substance” value (yeast gene YGR101W, incubated two hours with chemical substance) was 1.0, the “The level of expressed mRNA in the presence of chemical substance/The level of expressed mRNA in the absence of chemical substance” value (yeast gene YGR110W) was 0.9 and the “The level of expressed mRNA in the presence of chemical substance/The level of expressed mRNA in the absence of chemical substance” value (yeast gene YGR130C, incubated two hours with chemical substance) was 1.3. The “The level of expressed mRNA in the presence of chemical substance/The level of expressed mRNA in the absence of chemical substance” value (yeast gene YGR154C, incubated two hours with chemical substance) was 1.0, the “The level of expressed mRNA in the presence of chemical substance/The level of expressed mRNA in the absence of chemical substance” value (yeast gene YGR221C, incubated two hours with chemical substance) was 1.3 and the “The level of expressed mRNA in the presence of chemical substance/The level of expressed mRNA in the absence of chemical substance” value (yeast gene YHR138C, incubated two hours with chemical substance) was 5.0. For the same molecule, the “The level of expressed mRNA in the presence of chemical substance/The level of expressed mRNA in the absence of chemical substance” value (yeast gene YHR199C, incubated two hours with chemical substance) was 1.1, the “The level of expressed mRNA in the presence of chemical substance/The level of expressed mRNA in the absence of chemical substance” value (yeast gene YIL023C, incubated two hours with chemical substance) was 1.2 and the “The level of expressed mRNA in the presence of chemical substance/The level of expressed mRNA in the absence of chemical substance” value (yeast gene YIL041W, incubated two hours with chemical substance) was 0.8. For the same molecule, the “The level of expressed mRNA in the presence of chemical substance/The level of expressed mRNA in the absence of chemical substance” value (yeast gene YIL087C, incubated two hours with chemical substance) was 1.7, the “The level of expressed mRNA in the presence of chemical substance/The level of expressed mRNA in the absence of chemical substance” value (yeast gene YJL057C, incubated two hours with chemical substance) was 1.4 and the “The level of expressed mRNA in the presence of chemical substance/The level of expressed mRNA in the absence of chemical substance” value (yeast gene YJL066C, incubated two hours with chemical substance) was 1.4. For the same molecule, the “The level of expressed mRNA in the presence of chemical substance/The level of expressed mRNA in the absence of chemical substance” value (yeast gene YJL082W, incubated two hours with chemical substance) was 0.6, the “The level of expressed mRNA in the presence of chemical substance/The level of expressed mRNA in the absence of chemical substance” value (yeast gene YJL151C, incubated two hours with chemical substance) was 3.5 and the “The level of expressed mRNA in the presence of chemical substance/The level of expressed mRNA in the absence of chemical substance” value (yeast gene YJL152W, incubated two hours with chemical substance) was 2.5. The “The level of expressed mRNA in the presence of chemical substance/The level of expressed mRNA in the absence of chemical substance” value (yeast gene YJL161W, incubated two hours with chemical substance) was 1.9, the “The level of expressed mRNA in the presence of chemical substance/The level of expressed mRNA in the absence of chemical substance” value (yeast gene YJL171C, incubated two hours with chemical substance) was 3.6 and the “The level of expressed mRNA in the presence of chemical substance/The level of expressed mRNA in the absence of chemical substance” value (yeast gene YJR008W, incubated two hours with chemical substance) was 1.5. For the same molecule, the “The level of expressed mRNA in the presence of chemical substance/The level of expressed mRNA in the absence of chemical substance” value (yeast gene YJR054W, incubated two hours with chemical substance) was 0.9, the “The level of expressed mRNA in the presence of chemical substance/The level of expressed mRNA in the absence of chemical substance” value (yeast gene YKL071W) was 1.0 and the “The level of expressed mRNA in the presence of chemical substance/The level of expressed mRNA in the absence of chemical substance” value (yeast gene YKL086W, incubated two hours with chemical substance) was 0.9. For the same molecule, the “The level of expressed mRNA in the presence of chemical substance/The level of expressed mRNA in the absence of chemical substance” value (yeast gene YKL151C, incubated two hours with chemical substance) was 1.4 and the “The level of expressed mRNA in the presence of chemical substance/The level of expressed mRNA in the absence of chemical substance” value (yeast gene YKL153W, incubated two hours with chemical substance) was 0.9.
